Experimental data: patent publication US20110053900A1, “PROGESTERONE ANTAGONISTS SUCH AS CDB-4124 IN THE TREATMENT OF BREAST CANCER” (Repros Therapeutics inc, priority 2008, published 2011)

Key:
rabbit uterus = test: Anti-McGinty and anti-Clauberg assays; format: in vivo; conditions: in comparison to RU 486 and CDB-2914
Description: Also given in the Table are the relative biological activities of the same compounds in the rabbit uterus by the anti-McGinty and anti-Clauberg assays. Compound CDB-2914 (listed at the end of the Table) was used as the control or reference compound (rabbit Biological Activity=1.00) for these experiments because results of experiments using CDB-2914 have been published before (Hild-Petito et al., 1996; Passaro et al., 1997; Reel et al., 1998; Lamer et al., 2000). For the anti-McGinty test, immature female rabbits received a subcutaneous injection of 5 μg estradiol in 10% ethanol/sesame oil daily for 6 consecutive days. On day 7, animals underwent sterile abdominal surgery to ligate a 3-4 cm segment of both uterine horns. The test compound in appropriate solvent was injected intraluminally into the ligated segment of one uterine horn and vehicle alone into the other. A stimulating dose of progesterone (267 μg/day) was administered subcutaneously to each rabbit daily for the next three days to induce endometrial proliferation. All animals were sacrificed at day 10 for removal of the uterus where a segment central to the ligatures was removed and fixed in 10% neutral buffered formalin and submitted for histological processing. Five micron sections stained with hematoxylin and cosin were evaluated microscopically for the degree of endometrial glandular proliferation. The percent inhibition of endometrial proliferation for each rabbit was calculated and the mean of the group of five animals recorded. For the Anti-Clauberg test, immature female rabbits received a subcutaneous injection of 5 μg estradiol in 10% ethanol/sesame oil daily for 6 consecutive days. On day 7, animals received progesterone by subcutaneous injection (160 μg/day) and the experimental compound in appropriate vehicle orally or subcutaneously for five consecutive days. One group of rabbits received progesterone only. Twenty-four hours after the last dose, all animals were sacrificed for removal of the uterus which was cleaned of all fat and connective tissue, weighed to the nearest 0.2 mg and placed in 10% neutral buffered formalin for subsequent histological processing. Five micron sections stained with hematoxylin and eosin were evaluated microscopically for the degree of endometrial glandular proliferation. The percent inhibition of endometrial proliferation at each dose level of the test compound was derived by comparison with progesterone-stimulated animals alone. The data presented in Table 1 (rabbit Biol. Act.) reflects the average of the results obtained for each compound by the anti-McGinty and anti-Clauberg assays relative to CDB-2914.

[1] = biological target: T1, glucocorticoid receptor (rbGR) (Oryctolagus cuniculus, UniProt P59667); test: Glucocorticoid receptor binding; design: species or system rabbit
T1 construct: cytosol containing PR or GR were prepared in TEGMD buffer; from tissue; host or cells: thymus of estradiol-primed immature rabbits (cytosol)
T1 sequence (P59667 1-772): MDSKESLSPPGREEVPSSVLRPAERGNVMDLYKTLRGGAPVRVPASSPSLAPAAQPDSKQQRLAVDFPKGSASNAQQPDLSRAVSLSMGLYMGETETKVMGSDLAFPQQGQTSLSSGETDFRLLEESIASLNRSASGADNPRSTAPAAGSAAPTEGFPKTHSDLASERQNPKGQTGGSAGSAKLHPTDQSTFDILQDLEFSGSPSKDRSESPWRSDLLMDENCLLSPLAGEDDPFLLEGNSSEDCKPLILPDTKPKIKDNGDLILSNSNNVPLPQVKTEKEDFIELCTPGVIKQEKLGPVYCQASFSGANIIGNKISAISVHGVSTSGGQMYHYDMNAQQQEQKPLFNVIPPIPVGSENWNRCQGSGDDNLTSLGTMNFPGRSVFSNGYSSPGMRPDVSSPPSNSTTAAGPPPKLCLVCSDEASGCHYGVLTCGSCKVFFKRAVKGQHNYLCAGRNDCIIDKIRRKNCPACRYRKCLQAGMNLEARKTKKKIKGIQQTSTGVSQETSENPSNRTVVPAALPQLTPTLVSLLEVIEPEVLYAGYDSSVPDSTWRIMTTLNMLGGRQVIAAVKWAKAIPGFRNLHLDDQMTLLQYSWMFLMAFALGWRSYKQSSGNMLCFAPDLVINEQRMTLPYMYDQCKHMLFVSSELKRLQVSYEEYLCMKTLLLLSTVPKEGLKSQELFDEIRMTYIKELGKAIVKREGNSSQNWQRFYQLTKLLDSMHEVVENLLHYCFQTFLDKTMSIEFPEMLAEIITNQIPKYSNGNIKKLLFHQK
Procedure: Certain antiprogestins were tested in receptor-binding assays for their ability to bind rabbit progesterone receptor (rbPR) and glucocorticoid receptor (rbGR). […] For PR binding, the cytosol was incubated with 6 nM 1,2-[^3H]progesterone (50.0 Ci/mmole) and competitors were added at concentrations from 2 to 100 nM. For binding to GR, the cytosol was incubated with 6 nM 6,7-[^3H]-dexamethasone (40 Ci/mmol) and test compounds were added at concentrations from 20 to 100 nM. After overnight incubation at 4° C., bound and unbound [^3H] steroids were separated by addition of dextran-coated charcoal and centrifugation at 2100×g for 15 min at 4
C. Supernatants containing the [3H]-steroid receptor complexes were decanted into vials containing 4 ml Optifluor (Packard Instrument Co.), vortexed, equilibrated in a liquid scintillation counter for 30 minutes and then counted for 2 minutes. […] The standards for the PR and GR assays were unlabeled progesterone and dexamethasone, respectively.

[2] = tested on: rabbit progesterone receptor (rbPR) and glucocorticoid receptor (rbGR); test: Receptor-binding assays, ratio of relative binding affinities rbPR/rbGR; conditions: RBA = EC50 of standard/EC50 of test compound x 100
Procedure: Certain antiprogestins were tested in receptor-binding assays for their ability to bind rabbit progesterone receptor (rbPR) and glucocorticoid receptor (rbGR). Briefly, cytosol containing PR or GR were prepared in TEGMD buffer (10 mM Tris, pH 7.2, 1.5 mM EDTA, 0.2 mM sodium molybdate, 10% glycerol, 1 mM DTT) from uterus or thymus, respectively, of estradiol-primed immature rabbits. For PR binding, the cytosol was incubated with 6 nM 1,2-[^3H]progesterone (50.0 Ci/mmole) and competitors were added at concentrations from 2 to 100 nM. For binding to GR, the cytosol was incubated with 6 nM 6,7-[^3H]-dexamethasone (40 Ci/mmol) and test compounds were added at concentrations from 20 to 100 nM. After overnight incubation at 4° C., bound and unbound [^3H] steroids were separated by addition of dextran-coated charcoal and centrifugation at 2100×g for 15 min at 4
C. Supernatants containing the [3H]-steroid receptor complexes were decanted into vials containing 4 ml Optifluor (Packard Instrument Co.), vortexed, equilibrated in a liquid scintillation counter for 30 minutes and then counted for 2 minutes. The ECso (Effective Concentration) for each standard curve and each of the compound curves was determined by entering the counting data into a four parameter sigmoidal computer program (RiaSmart® Immunoassay Data Reduction Program, Packard Instrument Co., Meriden, Conn.). Relative binding affinity (RBA) for each compound was calculated using the following equation: EC50 of standard/EC50 of test compound×100. The standards for the PR and GR assays were unlabeled progesterone and dexamethasone, respectively. The results of these experiments are summarized in Table 1, as a ratio of the relative binding affinities of each compound for the rbPR and rbGR receptors (rbPR/rbGR).

[3] = Estrogen levels in human females during administration; format: in vivo; conditions: administration periods of at least six months
Serum cortisol by ELISA = format: in vivo, rat; conditions: 10 mg/kg, 21 days of dosing
Procedure: (§1) The animals were assessed three times for their levels of progesterone: initially, when they were about to go on treatment; a second time after 21 days of treatment; and finally after treatment at sacrifice which was 2-4 days after the last s.c. injection. All blood samples were taken by heart puncture; serum was prepared and held frozen at −40° C. The levels of the steroid hormones progesterone, cortisol, and corticosterone were determined by ELISA.
(§2) The concentrations of steroid hormones were determined three times during the study: before the beginning of treatments, after 21 days of treatment and finally after treatment at sacrifice which was 2-4 days after the last s.c. injection. All samples were taken by heart puncture. Serum was obtained and held frozen at −40° C. The levels of steroid hormones were determined by ELISA.

[4] = Serum progesterone by ELISA; format: in vivo, rat
Procedure: as §1, §2

[5] = Estrogenic, androgenic, anti-estrogenic and anti-androgenic activities
glucocorticoid receptor = biological target: T2, glucocorticoid receptor (Homo sapiens, UniProt P04150); conditions: compared with parent CDB-4124; cited from earlier work
T2 sequence (P04150 1-777): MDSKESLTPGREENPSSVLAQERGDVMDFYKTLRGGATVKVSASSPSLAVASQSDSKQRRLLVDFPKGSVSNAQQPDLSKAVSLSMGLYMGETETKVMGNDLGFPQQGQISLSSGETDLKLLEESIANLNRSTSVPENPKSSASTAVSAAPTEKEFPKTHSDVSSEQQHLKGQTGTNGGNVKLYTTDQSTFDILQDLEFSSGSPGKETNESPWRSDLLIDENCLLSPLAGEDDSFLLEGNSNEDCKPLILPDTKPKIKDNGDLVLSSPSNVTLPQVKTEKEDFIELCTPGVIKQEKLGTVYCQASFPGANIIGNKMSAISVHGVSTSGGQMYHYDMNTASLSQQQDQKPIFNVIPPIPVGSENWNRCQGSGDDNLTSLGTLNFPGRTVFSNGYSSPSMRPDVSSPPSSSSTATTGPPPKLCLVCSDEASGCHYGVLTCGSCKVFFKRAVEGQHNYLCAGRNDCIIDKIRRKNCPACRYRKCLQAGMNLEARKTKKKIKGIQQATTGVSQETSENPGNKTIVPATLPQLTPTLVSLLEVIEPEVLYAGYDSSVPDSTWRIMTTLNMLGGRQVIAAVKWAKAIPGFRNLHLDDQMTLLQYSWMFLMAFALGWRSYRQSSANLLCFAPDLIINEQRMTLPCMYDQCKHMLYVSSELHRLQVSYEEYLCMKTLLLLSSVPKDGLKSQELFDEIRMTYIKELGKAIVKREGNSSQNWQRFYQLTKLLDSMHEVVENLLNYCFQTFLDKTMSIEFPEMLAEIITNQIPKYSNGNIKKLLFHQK

Row | Structure (SMILES) | antiprogestin activity in the rabbit uterus (in words) (rabbit uterus) | anti-glucocorticoid receptor activity / glucocorticoid receptor binding (in words) [1] | rbPR/rbGR (ratio of the relative binding affinities for rbPR and rbGR) [2] | estrogen levels in human females (in words) [3] | serum cortisol versus control group (in words) (Serum cortisol by ELISA) | serum progesterone versus before treatment (in words) ([4]; 10 mg/kg) | Serum Progesterone, Before TX (mean) ([4]; 10 mg/kg group, before treatment) [ng/mL] | Serum Progesterone, During TX (mean) ([4]; 10 mg/kg, after 21 days of treatment) [ng/mL] | Serum Progesterone, After TX (mean) ([4]; 10 mg/kg, at sacrifice 2-4 days after the last s.c. injection) [ng/mL] | estrogenic, androgenic, anti-estrogenic, and anti-androgenic activities (in words) [5] | anti-glucocorticoid activity (in words) (glucocorticoid receptor)
1 | CC(=O)OCC(=O)[C@@]1(OC(C)=O)CCC2C3CCC4=CC(=O)CCC4=C3C(c3ccc(N(C)C)cc3)C[C@@]21C (stereo partly drawn) [CDB-4059, 21-acetoxy-17α-acetoxy-11β-(4 N,N-dimethylaminophenyl)-19-norpregna-4,9-diene-3,20-dione] | strong antiprogestin activity | minimal anti-glucocorticoid receptor activity | 1.89 | maintain estrogen levels in the normal range | significantly higher levels of serum cortisol | did not raise serum progesterone levels | 57 | 58 | 47 | lack estrogenic, androgenic, anti-estrogenic, and anti-androgenic activities | –
2 | CNc1ccc([C@H]2C[C@@]3(C)[C@@H](CC[C@]3(OC(C)=O)C(=O)COC)[C@@H]3CCC4=CC(=O)CCC4=C32)cc1 [CDB-4453, 21-methoxy-17α-acetoxy-11β-(4-N-methylaminophenyl)-19-norpregna-4,9-diene-3,20-dione] | – | – | – | – | – | – | – | – | – | – | even lower anti-glucocorticoid activity than its parent
